Reference: patent US20200407398A1, “Short Proline-Rich Lipopeptide Potentiates Minocycline and Rifampicin Against Multidrug-and Extensively Drug-Resistant Pseudomonas Aeruginosa” (priority 2018, published 2020)
Read-outs that look alike come from different tables or passages of the source. Peptide text beside a SMILES is read from it. * marks the point of attachment. Palmitoyl = CCCCCCCCCCCCCCCC(=O)*; Octanoyl = CCCCCCCC(=O)*

How the values were obtained:
pig erythrocytes = assay type: cell-based
Method: Since PRAMPs are able to kill bacteria through membrane lysis, it is imperative to evaluate whether these synthesized SPRLPs also lyse eukaryotic membranes. The ability to lyse porcine red blood cells was assessed and the minimum concentration to result in 5% erythrocyte hemolysis (MHC) was reported (Tables 2 & 3). […] This greatly limits their therapeutic potential. […] However, all other SPRLPs were non-hemolytic (MHC>512 μg/mL).
The ability of SPRLPs to lyse eukaryotic red blood cells were quantified by the amount of hemoglobin released upon incubation with pig erythrocytes, following published protocols (37, 39). Fresh pig blood drawn from pig antecubital vein was centrifuged at 1000×g for 5 minutes at 4° C., washed with PBS three times and re-suspended in the same buffer, consecutively. Then, agents of interest were 2-fold serially diluted in PBS on 96-well plate and mixed with equal volumes of erythrocyte solution. Post 1-hour incubation at 37° C., intact cells were pelleted by centrifugation at 1000×g for 5 minutes at 4° C. The supernatant was then transferred to a new 96-well plate. The hemoglobin released was measured via EMax Plus microplate reader (Molecular Devices, USA) at 570 nm wavelength. Erythrocytes in PBS with or without 0.1% Triton X-100 was used as negative or positive control, respectively.

K. pneumoniae ATCC 13883 = assay type: cell-based
Method: (§1) The synthesized SPRLPs were evaluated for their antibacterial potency against a panel of Gram-positive and Gram-negative bacteria (Tables 2 & 3). Some of the included pathogens were collected from patients visiting or admitted to participating Canadian hospitals through the CAN-ICU (27) and CANWARD (28) national surveillance studies. Antibacterial activity was assessed using minimum inhibitory concentration (MIC) against various clinical pathogens.
(§2) Isolates used in this study were either obtained from the American Type Culture Collection (ATCC), the Canadian National Intensive Care Unit (CAN-ICU) surveillance study (27) or the Canadian Ward Surveillance (CANWARD) study (28). Clinical isolates belonging to the CAN-ICU and CANWARD studies were recovered from patients suffering a presumed infectious disease entering or admitted in a participating medical center across Canada during the time of study. MDR P. aeruginosa strains in this study refer to those that are resistant to aminoglycosides, fluoroquinolones, cephalosporins, and carbapenems while XDR strains are those that are resistant to aminoglycosides, fluoroquinolones, cephalosporins, carbapenems, aztreonam and penicillin+β-lactamase inhibitor combination (39, 40).
(§3) Microbroth dilution susceptibility test following the Clinical and Laboratory Standards Institute (CLSI) guidelines (32) was performed to assess the in vitro antibacterial activity of SPRLPs. Overnight grown bacterial cultures were diluted in saline to achieve a 0.5 McFarland turbidity, followed by 1:50 dilution in Mueller-Hinton broth (MHB) for inoculation to a final concentration of 5×10^5 colony forming units/mL. The assay was done on a 96-well plate to which the agents of interest were 2-fold serially diluted in MHB and incubated with equal volumes of inoculum at 37° C. for 18 hours. MIC was determined as the lowest concentration to inhibit visible bacterial growth in form of turbidity, which was confirmed using EMax Plus microplate reader (Molecular Devices, USA) at a wavelength of 590 nm. The well containing MHB broth with or without bacterial cells was used as positive or negative control, respectively.

[1] = system: P. aeruginosa CAN-ICU 62308 (gentamicin-resistant); assay type: cell-based
Method: as §1, §2, §3

[2] = system: S. maltophilia CAN-ICU 62584; assay type: cell-based
Method: as §1, §2, §3

[3] = system: E. coli CANWARD-2011 97615 (gentamicin-, tobramycin-, ciprofloxacin-resistant) aac(3′)iia; assay type: cell-based
Method: as §1, §2, §3

S. aureus ATCC 29213 = assay type: cell-based
Method: as §1, §2, §3

[4] = system: P. aeruginosa CANWARD-2011 96846 (gentamicin-, tobramycin-resistant); assay type: cell-based
Method: as §1, §2, §3

E. faecium ATCC 27270 = assay type: cell-based
Method: as §1, §2, §3

E. coli ATCC 25922 = assay type: cell-based
Method: as §1, §2, §3

[5] = system: methicillin-susceptible Staphylococcus epidermidis CANWARD-2008 81388; assay type: cell-based; details: methicillin-susceptible CANWARD-2008 81388
Method: as §1, §2, §3

[6] = system: methicillin-resistant S. aureus ATCC 33592; assay type: cell-based
Method: as §1, §2, §3

[7] = system: P. aeruginosa wild-type PAO1; assay type: cell-based
Method: as §1, §2, §3

E. faecalis ATCC 29212 = assay type: cell-based
Method: as §1, §2, §3

[8] = system: A. baumannii CAN-ICU 63169; assay type: cell-based
Method: as §1, §2, §3

[9] = system: E. coli CAN-ICU 63074 (amikacin-intermediate resistant); assay type: cell-based
Method: as §1, §2, §3

[10] = system: methicillin-resistant S. epidermidis CAN-ICU 61589 (ceftazidime-resistant); assay type: cell-based; details: methicillin-resistant CAN-ICU 61589 (ceftazidime-resistant)
Method: as §1, §2, §3

[11] = system: E. coli CAN-ICU 61714 (gentamicin-resistant); assay type: cell-based
Method: as §1, §2, §3

P. aeruginosa ATCC 27853 = assay type: cell-based
Method: as §1, §2, §3

[12] = system: wild-type and MDR/XDR P. aeruginosa clinical isolates; details: checkerboard assay; P. aeruginosa
Method: (§4) We evaluated the activity of SPRLPs in combination with fifteen clinically-used antibiotics against P. aeruginosa. Antibiotics tested included fluoroquinolones (moxifloxacin, ciprofloxacin and levofloxacin), aminoglycosides (gentamicin, tobramycin and amikacin), cephalosporins (ceftazidime and cefotaxime), carbapenems (meropenem and doripenem), aztreonam, rifampicin, minocycline, colistin and fosfomycin. The SPRLPs were screened initially at a fixed concentration of 8 μg/mL (5 μM) in combination with antibiotics against wild-type P. aeruginosa PAO1. We assessed potentiation by at least a four-fold absolute MIC reduction of the antibiotic, after which synergism was further validated by a conventional checkerboard assay. A fractional inhibitory concentration (FIC) index of ≤0.5, 0.5<x≤4 or >4 was interpreted as synergistic, indifferent or antagonistic interaction, respectively (31). FIC index was obtained by adding the FIC values of the antibiotic and the SPRLP adjuvant. FIC of antibiotics was calculated by dividing the MIC of the antibiotic in the presence of the adjuvant by the MIC of the antibiotic alone. Similarly, the FIC of adjuvant was calculated via dividing the MIC of the adjuvant in the presence of the antibiotic by the MIC of the adjuvant alone.
as §2, §3
(§5) The assay was performed on a 96-well plate, to which the agents of interest was 2-fold serially diluted in working MHB. Prior to serial dilution, SPRLP was added to the working MHB media so that a fixed final concentration of 8 μg/mL (5 μM) SPRLP per well was achieved. To ensure that the assay was working, the MIC determination test of the studied antibiotic (without SPRLP) was included on the same plate. Similar MIC results between the assay comparator and an independent MIC determination test (on a different plate) ensured validity of the synergy test. Overnight grown bacterial cultures were diluted in saline to 0.5 McFarland turbidity, followed by 1:50 dilution in MHB (without SPRLP) and inoculation into each well to a final concentration of approximately 5×10^5 colony forming units/mL. Wells containing only MHB (without SPRLP) with or without bacterial cells were used as positive or negative control, respectively.

Gram-positive bacteria = assay: Microbroth dilution MIC, range over panel; assay type: cell-based; details: against Gram-positive bacteria of the panel
Method: as §1, §3

[13] = system: P. aeruginosa PAO1 (wild-type); assay: microbe, parasite or virus in culture; details: Pseudomonas aeruginosa, PAO1, read-out: MIC (agent alone)
Method: as §4, §3
as §5, with “respectively. The plate was then incubated at 37° C. for 18 hours and examined for visible turbidity, to which was confirmed using EMax Plus microplate reader (Molecular Devices, USA) at a wavelength of 590 nm. A 4-fold or more MIC reduction of antibiotic in the presence of 8 μg/mL (5 μM) SPRLP denoted a positive synergy result and was further validated by a checkerboard assay.” for “respectively.”
The assay was done on a 96-well plate as previously described (40, 41). The agent of interest was 2-fold serially diluted along the x-axis, while the adjuvant was 2-fold serially diluted along the y-axis to create a matrix in which each well consist of a combination of both at different concentrations.

[14] = system: P. aeruginosa 260-97103 (MDR/XDR); assay: microbe, parasite or virus in culture; details: Pseudomonas aeruginosa, read-out: MIC (agent alone)
Method: as §4, §2, §3, §5

[15] = system: P. aeruginosa 259-96918 (MDR/XDR); assay: microbe, parasite or virus in culture; details: Pseudomonas aeruginosa, read-out: MIC (agent alone)
Method: as §4, §2, §3, §5

[16] = system: P. aeruginosa 91433 (colistin-resistant, MDR/XDR); assay: microbe, parasite or virus in culture; details: Pseudomonas aeruginosa, read-out: MIC (agent alone)
Method: as §4, §2, §3, §5

[17] = system: P. aeruginosa 262-101856 (MDR/XDR); assay: microbe, parasite or virus in culture; details: Pseudomonas aeruginosa, read-out: MIC (agent alone)
Method: as §4, §2, §3, §5

[18] = system: P. aeruginosa 101243 (colistin-resistant, MDR/XDR); assay: microbe, parasite or virus in culture; details: antibiotic or lipopeptide alone; for MIC: Pseudomonas aeruginosa, read-out: MIC (agent alone), P. aeruginosa 101243 (colistin-resistant)
Method: as §4, §2, §3, §5

[19] = system: P. aeruginosa 101885 (MDR/XDR); assay: microbe, parasite or virus in culture; details: Pseudomonas aeruginosa, read-out: MIC (agent alone)
Method: as §4, §2, §3, §5

[20] = system: P. aeruginosa 100036 (MDR/XDR); assay: microbe, parasite or virus in culture; details: Pseudomonas aeruginosa, read-out: MIC (agent alone)
Method: as §4, §2, §3, §5

[21] = system: P. aeruginosa 264-104354 (MDR/XDR); assay: microbe, parasite or virus in culture; details: Pseudomonas aeruginosa, read-out: MIC (agent alone)
Method: as §4, §2, §3, §5

Row | Structure (SMILES) | MIC (K. pneumoniae ATCC 13883) | MIC [1] | MIC [2] | MIC [3] | MIC (S. aureus ATCC 29213) | MIC [4] | MIC (E. faecium ATCC 27270) | MIC (E. coli ATCC 25922) | MIC [5] | MIC [6] | MIC [7] | MIC (E. faecalis ATCC 29212) | MIC [8] | MIC [9] | MIC [10] | MIC [11] | MIC (P. aeruginosa ATCC 27853) | MIC [13] | MIC [14] | MIC [15] | further results
1 | CCCCCCCC(=O)N1CCC[C@H]1C(=O)N[C@@H](CCCNC(=N)N)C(=O)N1CCC[C@H]1C(=O)N[C@@H](CCCNC(=N)N)C(=O)N1CCC[C@H]1C(=O)N[C@@H](CCCNC(=N)N)C(=O)N1CCC[C@H]1C(N)=O [Compound C8-PRP, CH3(CH2)6CO-PRPRPRP-NH2] (Octanoyl-PRPRPRP-NH2) | >128 µg/mL | >128 µg/mL | >128 µg/mL | >128 µg/mL | >128 µg/mL | >128 µg/mL | >128 µg/mL | >128 µg/mL | >128 µg/mL | >128 µg/mL | >512 µg/mL | >128 µg/mL | >128 µg/mL | >128 µg/mL | >128 µg/mL | >128 µg/mL | >128 µg/mL | – | – | – | MHC (minimum concentration that resulted in 5% red blood cell hemolysis) (pig erythrocytes; red cells of porcine): >512 µg/mL; interaction with minocycline (in words) [12]: indifferent interaction; interaction with rifampicin (in words) [12]: indifferent interaction
2 | CCCCCCCCCCCCCCCC(=O)N1CCC[C@H]1C(=O)N[C@@H](CCCNC(=N)N)C(=O)N1CCC[C@H]1C(=O)NCC(=O)N1CCC[C@H]1C(=O)N[C@@H](CCCNC(=N)N)C(=O)N1CCC[C@H]1C(N)=O [Compound C16-PGP, CH3(CH2)14CO-PRPGPRP-NH2] (Palmitoyl-PRPGPRP-NH2) | 64 µg/mL | 128 µg/mL | 128 µg/mL | 32 µg/mL | 32 µg/mL | 128 µg/mL | 16 µg/mL | 32 µg/mL | 8 µg/mL | 32 µg/mL | 64 µg/mL | 16 µg/mL | 32 µg/mL | 32 µg/mL | 16 µg/mL | 32 µg/mL | 128 µg/mL | – | – | – | MHC (minimum concentration that resulted in 5% red blood cell hemolysis) (pig erythrocytes): 16 µg/mL; MIC range (Gram-positive bacteria): 8 to 32 µg/mL
3 | CN(C)c1ccc(O)c2c1C[C@H]1C[C@H]3[C@H](N(C)C)C(O)=C(C(N)=O)C(=O)[C@@]3(O)C(O)=C1C2=O [minocycline] | – | – | – | – | – | – | – | – | – | – | – | – | – | – | – | – | – | 8 µg/mL | 16 µg/mL | 16 µg/mL | MIC [16]: 32 µg/mL; MIC [17]: 64 µg/mL; MIC (agent alone) ([18]; P. aeruginosa 101243 (colistin-resistant)): 4 µg/mL; MIC [18]: 2 µg/mL; MIC [19]: 16 µg/mL; MIC [20]: 16 µg/mL; MIC [21]: 32 µg/mL
4 | CO[C@H]1/C=C/O[C@@]2(C)Oc3c(C)c(O)c4c(O)c(c(/C=N/N5CCN(C)CC5)c(O)c4c3C2=O)NC(=O)/C(C)=C\C=C\[C@H](C)[C@H](O)[C@@H](C)[C@@H](O)[C@@H](C)[C@H](OC(C)=O)[C@@H]1C [rifampicin] | – | – | – | – | – | – | – | – | – | – | – | – | – | – | – | – | – | 8 µg/mL | 16 µg/mL | 16 µg/mL | MIC [16]: 16 µg/mL; MIC [17]: 512 µg/mL; MIC [18]: 4 µg/mL; MIC [19]: 16 µg/mL; MIC [20]: 16 µg/mL; MIC [21]: 8 µg/mL
